For the assay, the target named is human Factor XIa (Homo sapiens, UniProt P03951). The assay is described as follows: Factor XIa enzyme inhibition assay (dose response, fluorogenic AMC substrate). The conditions noted are these: purified enzyme; substrate 50 μM, enzyme 0.25 nM; read-out: hFXIa IC50. More on the design: Enzyme: Factor XIa. It is filed as biochemical. The procedure:
• Assay buffer: 20 mM Hepes, pH 7.4; 150 mM NaCl; 0.02% Tween 20 • Compounds: 10 mM stocks in DMSO • Substrate: 20 mM Glp-Pro-Arg-AMC, 25 mg/2.3 mL H2O (store at +4° C.) [Factor XIa, thrombin, and trypsin] • 20 mM Pro-Phe-Arg-AMC (Bachem I-1295), 25 mg/2.2 mL H2O or Boc-Leu-Gly-Arg-AMC (Bachem I-1105), 25 mg/2.07 mL H2O (store at +4° C.) [Factor Xa] • Enzyme: Factor XIa; 0.25 M in 50% glycerol (20 μg/mL) • Trypsin; 0.2 μM in 50% glycerol (4.8 μg/mL) • Thrombin; 0.2 μM in 50% glycerol (7.34 μg/mL) • Factor Xa; 0.2 μM in 50% glycerol (9.2 μg/mL)
• 1. Dilute the substrate to 100 μM in assay buffer (30 μL/6 mL). The enzyme is diluted to 0.5 nM just prior to use (12 L/6 mL for Factor XIa; 15 μL/6 mL for all of the rest.) • 2. Pipette 50 μL of substrate into each well of the 96 well (12×8) microtiter plate. (Column 1 is used as the 100% activity control and receives no compound, and Column 12 is the blank and receives no enzyme.) Add an additional 46 μL to column 2. • 3. Pipette 4 μL of each compound into the appropriate well in column 2 of the plate (unknowns assayed in triplicate, standard assayed in duplicate). The final compound concentration will be 1/50th of the stock. • 4. Serially two-fold dilute the compound by mixing the sample in column 2, removing 50 μL to the next well (column 3), mix and remove to column 4, etc. until column 11. After mixing column 11, remove 50 μL and discard. • 5. Pipette 50 μL of buffer into column 12. Initiate the reaction by adding 50 μL of enzyme solution to each well of columns 1-11 as rapidly as possible. • 6. Read the plate in a spectrophotometer (SpectraMax) at 30° C., wherein each well is measured every 60 s for 30 min. For Factor Xa assays, each well is measured every 1 min for a total of 60 min. • 7. For Factor XIa assays, the compounds are assayed, in duplicate, at 3 different starting concentrations, 20, 2, and 0.2 μM; 1:10, 1:100, and 1:1000 dilution of 10 mM stock or at 2, 0.2, and 0.02 μM; 1:100, 1:1000, and 1:10,000 dilution of 10 mM stock. Data for each concentration are combined for graphing and data fitting. • 8. Data can be used both for estimation of IC50 and for estimation of Kon.
Potential inhibitors of Factor XIa were evaluated using the following assay.
PyroGlu-Pro-Arg-7-methylaminocourin (AMC), available from CPC Scientific, Inc., is based on the substrate pyro-Glu-Pro-Arg-pNA (S-2366), available from Diapharma Group, Inc. (Columbus, Ohio), wherein the p-nitroanaline group is replaced with 7-methylaminocoumarin (AMC).
The final concentration of the substrate in the assay was 50 μM, and the final concentration of the enzyme was 0.25 nM. Inhibitors were tested by serial dilution over an appropriate range to yield a dose response curve for determination of the inhibitors' IC50 value. The assay mixture was read every minute for 30 minutes in order to generate progress curves. The plates were read in a Spectramax m5 Multimode Plate Reader (Molecular Devices LLC, Sunnyvale, Calif.). Dose response curves were fit to Equation 1 below in which A is the maximum inhibition, B is the minimum inhibition, C is the IC50, and D is the Hill coefficient.
Y=[(A−B)/(1+(X/C)^D)]+B (Equation 1)

human Factor XIa, sequence (P03951 388-625 limits assumed): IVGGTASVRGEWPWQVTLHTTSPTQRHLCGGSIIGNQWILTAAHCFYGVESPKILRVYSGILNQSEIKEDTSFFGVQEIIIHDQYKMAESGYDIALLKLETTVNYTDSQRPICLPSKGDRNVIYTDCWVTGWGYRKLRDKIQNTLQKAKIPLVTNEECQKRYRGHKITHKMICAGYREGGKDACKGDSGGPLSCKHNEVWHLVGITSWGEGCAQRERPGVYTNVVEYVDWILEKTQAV
human Factor XIa, sequence (P03951 19-387 partner limits assumed): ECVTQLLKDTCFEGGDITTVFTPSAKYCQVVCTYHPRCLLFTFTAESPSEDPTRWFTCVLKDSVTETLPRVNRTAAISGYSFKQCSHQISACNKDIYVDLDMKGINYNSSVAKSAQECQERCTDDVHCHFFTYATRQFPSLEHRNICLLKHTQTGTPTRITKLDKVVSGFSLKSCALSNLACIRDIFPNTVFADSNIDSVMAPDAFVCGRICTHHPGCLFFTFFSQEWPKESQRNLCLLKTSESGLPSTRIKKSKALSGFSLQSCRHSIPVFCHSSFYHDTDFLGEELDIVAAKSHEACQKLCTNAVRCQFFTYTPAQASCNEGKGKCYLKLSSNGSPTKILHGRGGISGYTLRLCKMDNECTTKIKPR

On to `Nc1cc(C[C@H]2C(=O)N(C(=O)N[C@@H](C3CCCCC3)C(F)(F)F)[C@@H]2C(=O)NC2CC2)ccn1` [Compound 1], for which the IC50 (in general, the concentration that gives 50% inhibition) fell in the range of 10 to 100 nM.
In the case of `CCNC(=O)[C@@H]1[C@@H](Cc2ccnc(N)c2)C(=O)N1C(=O)N[C@@H](c1ccccc1)C(F)(F)F` [Compound 2], the IC50 lay within 10 to 100 nM.
In the case of `Cc1cccc(N(C)C(=O)[C@@H]2[C@@H](Cc3ccnc(N)c3)C(=O)N2C(=O)N[C@@H](C2CCCCC2)C(F)(F)F)c1` [Compound 14], the IC50 was in the range of 10 to 100 nM.
For `CN(C(=O)[C@@H]1[C@@H](Cc2ccnc(N)c2)C(=O)N1C(=O)N[C@@H](C1CCCCC1)C(F)(F)F)c1ccccn1` [Compound 16], the IC50 is below 10 nM.
With `CN(C(=O)[C@@H]1[C@@H](Cc2ccnc(N)c2)C(=O)N1C(=O)N[C@@H](C1CCCCC1)C(F)(F)F)c1ccncn1` [Compound 20], the half-maximal inhibitory concentration (IC50) is below 10 nM.
On to `CC[C@@H](NC(=O)N1C(=O)[C@H](Cc2ccnc(N)c2)[C@H]1C(=O)N(C)c1ccccc1C)C1CCCCC1` [Compound 26], for which the IC50 lay within 10 to 100 nM.
Turning to `CN(C(=O)[C@@H]1[C@@H](Cc2ccnc(N)c2)C(=O)N1C(=O)N[C@@H](C1CCCCC1)C(F)(F)F)c1cnccn1` [Compound 30], the IC50 was below 10 nM.
In the case of `CCN(C(=O)[C@@H]1[C@@H](Cc2ccnc(N)c2)C(=O)N1C(=O)N[C@@H](C1CCCCC1)C(F)(F)F)c1ccncc1` [Compound 33] it was below 10 nM.
On to `CCN(C(=O)[C@@H]1[C@@H](Cc2ccnc(N)c2)C(=O)N1C(=O)N[C@@H](C1CCCCC1)C(F)(F)F)c1ccnc(C)c1` [Compound 34], for which the IC50 was below 10 nM.
On to `CN(C(=O)[C@@H]1[C@@H](Cc2ccnc(N)c2)C(=O)N1C(=O)NC1CCCc2ccccc21)c1ccccc1` (some centres unmarked) [Compound 41], for which the IC50 was in the range of 100 to 1000 nM.
In the case of `CC[C@@H](NC(=O)N1C(=O)[C@H](Cc2ccnc(N)c2)[C@H]1C(=O)N(C)c1ccccc1)c1ccncc1` [Compound 43], the IC50 lay in the range of 100 to 1000 nM.
Regarding `CN(C(=O)[C@@H]1[C@@H](Cc2ccnc(N)c2)C(=O)N1C(=O)N[C@H](C1CCCCC1)C1CC1)c1ccccc1` [Compound 45], the IC50 was below 10 nM.
As for `CC[C@@H](NC(=O)N1C(=O)[C@H](Cc2ccnc(N)c2)[C@H]1C(=O)N(C)c1ccccc1)c1ccc(OC(F)(F)F)cc1` [Compound 47], the figure is 100 to 1000 nM; as for `CC[C@@H](NC(=O)N1C(=O)[C@H](Cc2ccnc(N)c2)[C@H]1C(=O)N(C)c1ccccc1)c1ccc(F)c(F)c1` [Compound 48], 100 to 1000 nM; as for `CN(C(=O)[C@@H]1[C@@H](Cc2ccnc(N)c2)C(=O)N1C(=O)N[C@@H](C1CCCCC1)C1CC1)c1ncccn1` [Compound 53], below 10 nM.
Turning to `Cc1cc(N(C)C(=O)[C@@H]2[C@@H](Cc3ccnc(N)c3)C(=O)N2C(=O)N[C@@H](C2CCCCC2)C2CC2)ccn1` [Compound 56], the IC50 is below 10 nM.
For `CN(C(=O)[C@@H]1[C@@H](Cc2ccnc(N)c2)C(=O)N1C(N)=O)c1ccccc1` [Compound 57], the IC50 fell in the range of 100 to 1000 nM.
In the case of `CN(C(=O)[C@@H]1[C@@H](Cc2ccnc(N)c2)C(=O)N1C(=O)N[C@@H](c1cccnc1)C1CC1)c1ccccc1` [Compound 58] it was 10 to 100 nM.
As to `C[C@@H](NC(=O)N1C(=O)[C@H](Cc2ccnc(N)c2)[C@H]1C(=O)N(C)c1ccccc1)c1cccnc1` [Compound 60], the IC50 fell in the range of 10 to 100 nM.
In the case of `CC[C@@H](NC(=O)N1C(=O)[C@H](Cc2ccncc2)[C@H]1C(=O)N(C)c1ccccc1)C1CCCCC1` [Compound 62] it was 100 to 1000 nM; in that of `CN(C(=O)[C@@H]1[C@@H](Cc2ccncc2)C(=O)N1C(=O)N[C@@H](C1CCCCC1)C1CC1)c1ccccc1` [Compound 63], 100 to 1000 nM; in that of `CC[C@@H](NC(=O)N1C(=O)[C@H](Cc2ccncc2)[C@H]1C(=O)N(C)c1ccncc1)C1CCCCC1` [Compound 65], 100 to 1000 nM.
As for `CC[C@@H](NC(=O)N1C(=O)[C@H](Cc2ccncc2)[C@H]1C(=O)N(C)c1ccccc1)c1cccnc1` [Compound 66], the figure is 100 to 1000 nM.
As for `CN(C(=O)[C@@H]1[C@@H](Cc2ccnc(N)c2)C(=O)N1C(=O)N[C@@H](c1cccnc1)C(F)(F)F)c1ccccc1` [Compound 67], the figure is 10 to 100 nM.
Take `CCC[C@@H](NC(=O)N1C(=O)[C@H](Cc2ccnc(N)c2)[C@H]1C(=O)N(C)c1ccccc1)c1cccnc1` [Compound 68]: the IC50 fell in the range of 10 to 100 nM.
In the case of `CCC[C@H](NC(=O)N1C(=O)[C@H](Cc2ccnc(N)c2)[C@H]1C(=O)N(C)c1ccccc1)c1cccnc1` [Compound 69], the IC50 is 10 to 100 nM.
As for `CN(C(=O)[C@@H]1[C@@H](Cc2ccnc(N)c2)C(=O)N1C(=O)NC(C(F)(F)F)C(F)(F)F)c1ccccc1` [Compound 71], the figure is 10 to 100 nM; as for `CN(C(=O)[C@@H]1[C@@H](Cc2ccnc(N)c2)C(=O)N1C(N)=O)c1ccncc1` [Compound 72], 10 to 100 nM.
Regarding `CCC[C@@H](NC(=O)N1C(=O)[C@H](Cc2ccnc(N)c2)[C@H]1C(=O)N(C)c1ccncc1)c1cccnc1` [Compound 73], the IC50 is below 10 nM.
As for `CCC[C@@H](NC(=O)N1C(=O)[C@H](Cc2ccnc(N)c2)[C@H]1C(=O)N(C)c1ncccn1)c1cccnc1` [Compound 74], the IC50 is below 10 nM.
Regarding `CN(C(=O)[C@@H]1[C@@H](Cc2ccnc(N)c2)C(=O)N1C(=O)N[C@@H](c1cccnc1)C1CC1)c1ncccn1` [Compound 75], the IC50 was below 10 nM.
In the case of `Nc1cc(C[C@H]2C(=O)N(C(=O)N[C@@H](C3CCCCC3)C(F)(F)F)[C@@H]2C(=O)N2CCCc3ccccc32)ccn1` [Compound 76] it was 10 to 100 nM; in that of `CC[C@@H](NC(=O)N1C(=O)[C@H](Cc2cc(N)ncc2F)[C@H]1C(=O)N(C)c1ccccc1)C1CCCCC1` [Compound 85], above 1000 nM.
In the case of `CC[C@@H](NC(=O)N1C(=O)[C@H](Cc2cc(N)ncc2C)[C@H]1C(=O)N(C)c1ccccc1)C1CCCCC1` [Compound 88] it was above 1000 nM; in that of `CC[C@@H](NC(=O)N1C(=O)[C@H](Cc2cc(N)ncc2C)[C@H]1C(=O)N(C)c1ccncc1)C1CCCCC1` [Compound 92], 10 to 100 nM; in that of `CC[C@@H](NC(=O)N1C(=O)[C@H](Cc2ccnc(N)c2)[C@H]1C(=O)N(C)c1ccncc1)c1ccc(F)c(F)c1` [Compound 93], 10 to 100 nM.
With `CC[C@@H](NC(=O)N1C(=O)[C@H](Cc2ccnc(N)c2)[C@H]1C(=O)N(C)c1ccncc1)c1ccc(OC(F)(F)F)cc1` [Compound 94], the IC50 was in the range of 10 to 100 nM.
For `Cc1cccc(C(NC(=O)N2C(=O)[C@H](Cc3ccnc(N)c3)[C@H]2C(=O)N(C)c2ccncc2)c2cccc(C)c2)c1` [Compound 101], the IC50 was below 10 nM.
As for `CC[C@@H](NC(=O)N1C(=O)[C@H](Cc2ccnc(N)c2)[C@H]1C(=O)N(C)c1ccncc1)c1cncnc1` [Compound 102], the figure is 10 to 100 nM; as for `CC[C@@H](NC(=O)N1C(=O)[C@H](Cc2ccnc(N)c2)[C@H]1C(=O)N(C)c1ccncc1)c1cccc(F)c1` [Compound 103], below 10 nM.
In the case of `CC[C@@H](NC(=O)N1C(=O)[C@H](Cc2ccnc(N)c2)[C@H]1C(=O)N(C)c1ccncc1)c1cccc(C(F)(F)F)c1` [Compound 105], the IC50 lay within 10 to 100 nM.
As for `CC[C@@H](NC(=O)N1C(=O)[C@H](Cc2ccnc(N)c2)[C@H]1C(=O)N(C)c1ccncc1)c1cccc(OC(F)(F)F)c1` [Compound 106], the figure is 10 to 100 nM; as for `CC[C@@H](NC(=O)N1C(=O)[C@H](Cc2ccnc(NC(C)=O)c2)[C@H]1C(=O)N(C)c1ccncc1)c1cccc(Cl)c1` [Compound 107], 10 to 100 nM; as for `CC[C@@H](NC(=O)N1C(=O)[C@H](Cc2ccnc(N)c2)[C@H]1C(=O)N(C)c1ccncc1)c1ccccc1F` [Compound 108], below 10 nM.
